# Measurements from US20080287469A1, “Phosphoinositide 3-Kinase Inhibitors for Inhibiting Leukocyte Accumulation” (priority 2005, published 2008).
# Assays:
# PKCβII = PKCβII (Homo sapiens, UniProt P05771); settings: inhibitor 10 μM; reported by Sadhu et al.; cited from earlier work
# [1] = test system: neutrophils on TNFα-inflamed venular endothelium of the cremaster muscle; experiment: Intravital microscopy of TNFα-inflamed cremaster muscle venules, GFP+/− mice; type: in vivo
# From the text: To determine if PI3Kδ contributes to leukocyte accumulation in inflamed tissues, the ability of leukocytes to interact with cytokine-stimulated endothelial cells in microvessels in the cremaster muscle of mice and to transmigrate was examined. Animals heterozygous for GFP expression under the murine lysozyme M locus control, which rendered neutrophils and other granulocytes visible by epifluorescence intravital microscopy, were used to quantitate leukocyte interactions with the vessel wall.
# Mice in which green fluorescent protein (GFP) was knocked into the lysozyme M locus or the PI3Kδ catalytic subunit was deleted were generated as previously described [Faust et al., Blood, 96:719-726 (2000); and, Clayton et al., J. Exp. Med., 196:753-763 (2002)]. Subsequent matings were performed to yield mice that were heterozygous for GFP expression but deficient in PI3Kδ expression (mixed 129/Sv-C57BL/6 background) (GFP^+/−/PI3Kδ^−/− animals). All animals were handled in accordance with policies administered by institutional Animal Care and Use Committees.
# The surgical preparation of animals for all in vivo studies was performed using standard techniques [see, e.g., Coxon, Immunity, 5:653-666 (1996)]. The cremaster muscle (CM) in GFP^+/− or GFP^+/−/PI3Kδ^−/− animals was inflamed with an intrascrotal injection of murine recombinant TNFα (20 ng/mouse). 2.5 hours after TNFα injection, the tissue was surgically exposed and positioned over a circular glass coverslip (25 mm) on a custom-built plexiglass stage for viewing. The stage was then placed on an intravital microscope (IV-500; Mikron instruments, San Diego, Calif.) equipped with a silicon-intensified camera (VE1000SIT; Dage mti, Michigan City, Ind.) and the tissue kept moist by superfusion with thermo-controled (37° C.) bicarbonate-buffered saline. GFP-expressing cells (predominantly neutrophils, also including fewer monocytes) were visualized through X20 or X40 water immersion objectives (Acroplan, Carl Zeiss Inc.) by epifluorescence from a Xenon arc stroboscope (Chadwick Helmuth, El Monte, Calif.) as they passed through the venous microcirculation of the cremaster muscle. Rolling fraction was defined as the percentage of cells that interact with a given venule in the total number of cells that enter that venule during the same time period. The sticking fraction was defined as the number of rolling cells that became stationary for >30 s post-superfusion of the CM with LTB4 (0.1 μM). Venular shear rates were determined from optical Doppler velocimeter measurements of centerline erythrocyte velocity. The extent of leukocyte transmigration was evaluated at 30 and 60 min after application of LTB4. Video images were recorded using a Hi8 VCR (Sony, Boston, Mass.), and analysis of performed using a PC-based image analysis system [Doggett et al., Biophys. J., 83:194-205 (2002)].
# In order for leukocyte transmigration to occur, engagement of the leukocyte integrins with ICAMs expressed on venular endothelium (“firm adhesion”) is necessary for leukocytes to stably adhere to the vessel wall (in addition to the requirement for selectin-mediated tethering and rolling) [Dunne et al., Blood, 99:336-341 (2002)]. To determine the role of PI3Kδ in firm adhesion, the ability of leukocytes rolling on inflamed venular endothelium to undergo integrin-mediated firm adhesion in response to an activating stimulus was investigated in vivo.
# These experiments were performed in accordance with the procedures described in Example 2.
# ICAM-1 = experiment: LTB4-triggered firm adhesion of neutrophils to CHO cells transfected with human ICAM-1; type: cell-based; settings: 2 μM; LTB4 0.1 μM; wall shear stresses 2 and 4 dyn/cm^2
# Procedure: Purified neutrophils (2×10^6/ml in HBSS buffer containing 2 mM MgCl2) were incubated with 2 μM of a compound in accordance with the invention prior to conducting the adhesion assays. […] Treated neutrophils were then stimulated with LTB4 (0.1 μM) and allowed to bind in stasis to CHO cells transfected with human ICAM-1 before subjecting them to physiological wall shear stresses of 2 and 4 dyn/cm^2. ICAM-1 expression on these cells was confirmed by flow cytometry using mAb R 1/1 (fluorescence intensity>103, data not shown). […] For example, more than 80% of LTB4-stimulated neutrophils remained bound to the ICAM-1 substrate in the presence or absence of an inhibitor in accordance with the invention. The percentage of cells that remained adherent after 20 seconds (s) at each wall shear stress was determined by off-line video analysis.
# PDK1 [2] = target: PDK1 (Homo sapiens, UniProt O15530); experiment: Protein kinase/phosphatase panel: PDK1; type: biochemical; settings: inhibitor 10 μM; 100 μM ATP
# Chain of PDK1 (Homo sapiens, UniProt O15530) (O15530 whole entry): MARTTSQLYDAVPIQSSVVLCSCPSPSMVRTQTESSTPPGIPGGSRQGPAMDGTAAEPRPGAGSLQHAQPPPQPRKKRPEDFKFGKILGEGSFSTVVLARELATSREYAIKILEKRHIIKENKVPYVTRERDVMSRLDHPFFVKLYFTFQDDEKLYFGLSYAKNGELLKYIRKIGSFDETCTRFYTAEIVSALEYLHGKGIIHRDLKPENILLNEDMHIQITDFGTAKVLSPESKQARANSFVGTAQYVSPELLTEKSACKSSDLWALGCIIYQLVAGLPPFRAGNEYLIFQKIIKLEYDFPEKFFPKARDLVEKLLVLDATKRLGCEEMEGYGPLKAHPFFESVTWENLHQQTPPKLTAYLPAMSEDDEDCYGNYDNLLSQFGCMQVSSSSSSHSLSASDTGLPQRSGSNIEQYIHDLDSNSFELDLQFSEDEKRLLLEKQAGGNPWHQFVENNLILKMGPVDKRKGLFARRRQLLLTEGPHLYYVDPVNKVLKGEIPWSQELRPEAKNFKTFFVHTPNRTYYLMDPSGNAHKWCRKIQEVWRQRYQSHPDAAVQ
# [3] = Number of circulating neutrophils in treated mice; type: in vivo; settings: inhibitor treated animals
# From the text: The reduction in cell adhesion in these animals was not due to inhibitor-induced leukopenia as the number of circulating neutrophils was similar in both the control and experimental groups (2,857.3±803 and 2,730.7±1132.6 for control and inhibitor treated animals, respectively). The absolute number of circulating neutrophils in animals deficient in PI3Kδ was 2,997.7±776.1 (n=8).
# CDK2/cyclinA = CDK2/cyclinA (Homo sapiens, UniProt P24941); experiment: Protein kinase/phosphatase panel: CDK2/cyclinA; type: biochemical; settings: inhibitor 10 μM; 100 μM ATP
# PDK1 [4] = experiment: Activity of PDK1 immunoprecipitated from TNFα-stimulated HUVECs; type: cell-based, human; settings: incubation of intact HUVECs with compound
# From the text: Thus, PI3Kδ activity is required for PDK1 and Akt function in endothelium as previously described for neutrophils.
# Lck = Lck (Homo sapiens, UniProt P06239); experiment: Protein kinase/phosphatase panel: Lck; type: biochemical; settings: inhibitor 10 μM; 100 μM ATP
# Chain of Lck (P06239 whole entry, species assumed): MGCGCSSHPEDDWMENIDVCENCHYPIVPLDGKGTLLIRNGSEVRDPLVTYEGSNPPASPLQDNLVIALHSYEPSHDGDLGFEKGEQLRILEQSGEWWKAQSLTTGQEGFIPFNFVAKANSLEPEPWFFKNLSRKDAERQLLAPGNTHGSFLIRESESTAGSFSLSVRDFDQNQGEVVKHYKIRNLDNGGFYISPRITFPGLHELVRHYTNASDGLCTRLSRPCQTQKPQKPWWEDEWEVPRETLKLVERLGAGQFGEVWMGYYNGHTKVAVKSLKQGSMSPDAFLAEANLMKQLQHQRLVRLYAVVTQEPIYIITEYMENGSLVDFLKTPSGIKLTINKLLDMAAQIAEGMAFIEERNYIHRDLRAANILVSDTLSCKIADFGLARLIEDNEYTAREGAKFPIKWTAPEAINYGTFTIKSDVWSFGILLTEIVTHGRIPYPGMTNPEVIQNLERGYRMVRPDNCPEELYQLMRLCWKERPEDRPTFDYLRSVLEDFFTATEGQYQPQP
# [5] = target: CD45 tyrosine phosphatase (Homo sapiens, UniProt P08575); experiment: Protein kinase/phosphatase panel: CD45 tyrosine phosphatase; type: biochemical; settings: inhibitor 10 μM
# Chain of CD45 tyrosine phosphatase (P08575 26-1306): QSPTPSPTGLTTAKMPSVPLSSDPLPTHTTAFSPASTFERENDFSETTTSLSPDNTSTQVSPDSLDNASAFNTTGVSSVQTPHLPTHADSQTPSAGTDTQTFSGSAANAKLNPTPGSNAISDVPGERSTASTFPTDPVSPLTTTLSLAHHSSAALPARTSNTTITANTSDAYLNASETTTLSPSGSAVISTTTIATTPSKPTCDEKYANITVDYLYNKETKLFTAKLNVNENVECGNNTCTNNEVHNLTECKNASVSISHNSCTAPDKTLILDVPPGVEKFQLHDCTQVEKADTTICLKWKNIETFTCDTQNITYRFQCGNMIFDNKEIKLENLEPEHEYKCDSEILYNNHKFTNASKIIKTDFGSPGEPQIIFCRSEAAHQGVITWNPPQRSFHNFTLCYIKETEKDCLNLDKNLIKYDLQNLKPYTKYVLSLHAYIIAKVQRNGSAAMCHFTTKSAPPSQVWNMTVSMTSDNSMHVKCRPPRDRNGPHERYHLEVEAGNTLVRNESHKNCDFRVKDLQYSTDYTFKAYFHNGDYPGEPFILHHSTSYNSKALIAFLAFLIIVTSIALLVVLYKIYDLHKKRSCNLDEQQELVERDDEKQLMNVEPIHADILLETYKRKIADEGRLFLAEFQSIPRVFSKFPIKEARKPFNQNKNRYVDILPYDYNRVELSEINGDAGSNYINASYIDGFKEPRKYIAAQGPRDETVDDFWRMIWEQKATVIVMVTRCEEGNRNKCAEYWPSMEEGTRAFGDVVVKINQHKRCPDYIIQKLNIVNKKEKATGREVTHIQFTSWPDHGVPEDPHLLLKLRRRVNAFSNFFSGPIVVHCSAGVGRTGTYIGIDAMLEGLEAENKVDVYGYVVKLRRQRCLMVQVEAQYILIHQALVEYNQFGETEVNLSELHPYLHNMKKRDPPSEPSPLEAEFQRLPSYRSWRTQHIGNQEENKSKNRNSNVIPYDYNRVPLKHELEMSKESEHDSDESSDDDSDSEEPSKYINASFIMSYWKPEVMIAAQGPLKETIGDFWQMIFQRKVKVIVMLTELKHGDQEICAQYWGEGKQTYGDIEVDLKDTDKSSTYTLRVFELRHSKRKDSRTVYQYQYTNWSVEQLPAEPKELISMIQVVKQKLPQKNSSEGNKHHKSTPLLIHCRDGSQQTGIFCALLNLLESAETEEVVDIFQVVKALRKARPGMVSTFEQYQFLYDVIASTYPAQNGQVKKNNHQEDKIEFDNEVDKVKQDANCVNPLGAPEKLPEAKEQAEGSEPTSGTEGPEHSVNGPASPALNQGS
# DNA-PK = DNA-PK (Homo sapiens, UniProt P78527); settings: inhibitor 10 μM; reported by Sadhu et al.; cited from earlier work
# [6] = test system: Akt phosphorylation in HUVECs; experiment: Akt phosphorylation in TNFα-stimulated HUVECs (Western blot); type: cell-based, human; settings: 2 μM
# neutrophils = settings: absence of hemodynamic forces; Sadhu et al.; cited from earlier work
# CHK1 = CHK1 (Homo sapiens, UniProt O14757); settings: inhibitor 10 μM; reported by Sadhu et al.; cited from earlier work
# Chain of CHK1 (O14757 whole entry, species assumed): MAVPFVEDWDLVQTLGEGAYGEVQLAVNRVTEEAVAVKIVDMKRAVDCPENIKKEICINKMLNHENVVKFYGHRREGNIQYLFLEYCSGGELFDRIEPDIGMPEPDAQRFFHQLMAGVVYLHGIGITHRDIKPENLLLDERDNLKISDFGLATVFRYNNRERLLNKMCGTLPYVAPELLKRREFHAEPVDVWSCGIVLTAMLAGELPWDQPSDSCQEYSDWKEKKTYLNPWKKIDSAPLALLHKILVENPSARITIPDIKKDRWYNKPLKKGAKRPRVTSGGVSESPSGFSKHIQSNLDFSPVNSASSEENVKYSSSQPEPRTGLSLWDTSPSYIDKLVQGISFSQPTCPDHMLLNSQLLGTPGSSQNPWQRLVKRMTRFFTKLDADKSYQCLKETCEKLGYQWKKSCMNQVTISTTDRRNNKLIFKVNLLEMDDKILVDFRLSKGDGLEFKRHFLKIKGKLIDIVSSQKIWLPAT
# CK1 = settings: inhibitor 10 μM; reported by Sadhu et al.; cited from earlier work
# [7] = target: EGF receptor tyrosine kinase (Homo sapiens, UniProt P00533); experiment: Protein kinase/phosphatase panel: EGF receptor tyrosine kinase; type: biochemical; settings: inhibitor 10 μM; 100 μM ATP
# Chain of EGF receptor tyrosine kinase (P00533 25-1210): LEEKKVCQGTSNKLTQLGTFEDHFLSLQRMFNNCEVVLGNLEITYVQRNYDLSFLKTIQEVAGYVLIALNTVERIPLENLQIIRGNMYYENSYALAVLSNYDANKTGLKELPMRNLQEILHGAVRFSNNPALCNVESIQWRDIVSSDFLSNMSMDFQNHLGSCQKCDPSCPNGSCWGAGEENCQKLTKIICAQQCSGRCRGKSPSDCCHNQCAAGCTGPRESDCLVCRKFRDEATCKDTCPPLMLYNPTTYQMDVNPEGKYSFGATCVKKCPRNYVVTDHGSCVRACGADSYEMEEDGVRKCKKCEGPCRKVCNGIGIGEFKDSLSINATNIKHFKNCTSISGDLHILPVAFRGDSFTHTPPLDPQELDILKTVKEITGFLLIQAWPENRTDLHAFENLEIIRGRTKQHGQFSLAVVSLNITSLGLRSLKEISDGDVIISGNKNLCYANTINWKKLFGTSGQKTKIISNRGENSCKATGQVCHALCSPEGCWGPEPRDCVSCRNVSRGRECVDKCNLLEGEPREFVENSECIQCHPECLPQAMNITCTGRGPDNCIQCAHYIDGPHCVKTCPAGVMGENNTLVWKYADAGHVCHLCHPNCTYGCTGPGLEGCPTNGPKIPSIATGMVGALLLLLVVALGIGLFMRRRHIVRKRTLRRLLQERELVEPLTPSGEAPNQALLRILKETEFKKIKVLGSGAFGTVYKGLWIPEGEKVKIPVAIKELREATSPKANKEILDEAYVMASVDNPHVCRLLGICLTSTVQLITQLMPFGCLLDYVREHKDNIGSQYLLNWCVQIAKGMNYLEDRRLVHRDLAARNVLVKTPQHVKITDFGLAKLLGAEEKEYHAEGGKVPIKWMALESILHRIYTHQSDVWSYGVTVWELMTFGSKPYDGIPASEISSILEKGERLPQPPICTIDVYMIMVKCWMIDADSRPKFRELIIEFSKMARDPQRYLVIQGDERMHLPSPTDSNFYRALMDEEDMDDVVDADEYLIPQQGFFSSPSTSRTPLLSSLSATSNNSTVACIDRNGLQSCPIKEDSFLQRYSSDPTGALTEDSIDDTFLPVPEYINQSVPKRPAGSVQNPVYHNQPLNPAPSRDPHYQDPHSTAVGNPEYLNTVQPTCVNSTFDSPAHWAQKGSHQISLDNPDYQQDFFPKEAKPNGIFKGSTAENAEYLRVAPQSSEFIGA
# Chain of PKCβII (P05771 1-673 isoform P05771-2): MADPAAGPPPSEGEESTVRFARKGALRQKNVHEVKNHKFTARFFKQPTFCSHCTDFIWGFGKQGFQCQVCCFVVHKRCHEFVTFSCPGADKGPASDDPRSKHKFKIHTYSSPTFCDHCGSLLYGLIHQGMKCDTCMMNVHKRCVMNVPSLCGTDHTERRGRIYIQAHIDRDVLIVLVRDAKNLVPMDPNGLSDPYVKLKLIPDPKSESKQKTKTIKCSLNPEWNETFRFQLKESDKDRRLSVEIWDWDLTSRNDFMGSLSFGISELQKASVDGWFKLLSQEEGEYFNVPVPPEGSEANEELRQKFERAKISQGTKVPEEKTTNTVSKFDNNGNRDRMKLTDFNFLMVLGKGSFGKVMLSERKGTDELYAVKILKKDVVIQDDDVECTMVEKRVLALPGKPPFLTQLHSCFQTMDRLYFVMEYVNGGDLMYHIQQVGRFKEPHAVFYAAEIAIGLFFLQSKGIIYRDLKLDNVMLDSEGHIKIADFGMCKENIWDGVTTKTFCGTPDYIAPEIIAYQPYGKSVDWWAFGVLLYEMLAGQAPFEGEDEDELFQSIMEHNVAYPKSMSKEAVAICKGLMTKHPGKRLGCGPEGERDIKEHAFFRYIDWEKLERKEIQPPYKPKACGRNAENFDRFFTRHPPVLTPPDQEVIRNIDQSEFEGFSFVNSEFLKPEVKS
smiles,measurement,setting,value
Cc1ccccc1-n1c(Cn2cnc3c(N)ncnc32)nc2cccc(C)c2c1=O,Activity (% of control) ± SD,PKCβII,No inhibition*
same,mean rolling velocities of neutrophils on TNFα-inflamed venules,[1]; GFP+/− animals,40.5±12.5 μm/s
same,LTB4-induced migration of neutrophils across inflamed microvessels,[1]; LTB4 superfusion of cremaster muscle,diminished
same,integrin-mediated firm adhesion of rolling leukocytes in vivo,[1]; inflamed cremaster muscle superfused with LTB4,rapidly transitioned from rolling to firm adhesion
same,time the majority of neutrophils rolled before releasing from the vessel wall,[1]; inhibitor-treated GFP+/− animals,< 2 s
same,interactions between circulating granulocytes and venular endothelium,"[1]; oral, one hour prior to intrascrotal TNFα, GFP+/− animals, vs vehicle",significantly impaired
same,decrease in the number of fluorescent cells that attach and roll,[1]; vs vehicle treated mice,> 50%
same,LTB4-stimulated neutrophils remaining bound to the ICAM-1 substrate,ICAM-1,more than 80%
same,Activity (% of control) ± SD,PDK1 [2],91.5 ± 2.1 % of control
same,number of circulating neutrophils,[3],"2,730.7±1132.6"
same,Activity (% of control) ± SD,CDK2/cyclinA,92.5 ± 2.12 % of control
same,kinase activity of PDK1 in response to TNFα,PDK1 [4],reduced the kinase activity
same,Activity (% of control) ± SD,Lck,116.5 ± 9.2 % of control
same,Activity (% of control) ± SD,[5],104 ± 2.2 % of control
same,Activity (% of control) ± SD,DNA-PK,No inhibition*
same,phosphorylation of Akt (TNFα-mediated signaling),[6],reduction in phosphorylation of Akt
same,fMLP-induced chemotaxis on an ICAM-1 substrate in vitro,neutrophils,diminished fMLP-induced chemotaxis
same,Activity (% of control) ± SD,CHK1,No inhibition*
same,Activity (% of control) ± SD,CK1,No inhibition*
same,Activity (% of control) ± SD,[7],102 ± 5.5 % of control
